Reference: patent publication US8003659B2, “Macrocyclic serine protease inhibitors” (Indenix Pharmaceuticals, Inc., priority 2008, dated 2011)

Columns and labels:
[1] = test system: Huh-7 cells containing HCV Con1 subgenomic replicon (GS4.1 cells); test: HCV Replicon Assay (NS4A ELISA); type: cell-based; conditions: Hepatitis C virus, Huh-7, 72 hr, NS4A protein by ELISA
Description: General procedure: Huh-7 cells containing HCV Con1 subgenomic replicon (GS4.1 cells) were grown in Dulbecco's Modified Eagle Medium (DMEM) supplemented with 10% fetal bovine serum (FBS), 2 mM L-glutamine, 110 mg/L sodium pyruvate, 1× non-essential amino acids, 100 U/mL penicillin-streptomycin, and 0.5 mg/mL G418 (Invitrogen). For dose-response testing, the cells were seeded in 96-well plates at 7.5×10^3 cells/well in a volume of 50 μL, and incubated at 37° C./5% CO2. Three hours after plating, 50 μL of ten 2-fold serial dilutions of compounds (highest concentration, 75 μM) were added, and cell cultures were incubated at 37° C./5% CO2 in the presence of 0.5% DMSO. Alternatively, compounds were tested at a single concentration of 15 μM. In all cases, Huh-7 cells lacking the HCV replicon served as negative control. The cells were incubated in the presence of compounds for 72 hr after which they were monitored for expression of the NS4A protein by enzyme-linked immunosorbent assay (ELISA). For this, the plates were then fixed for 1 min with acetone/methanol (1:1, v/v), washed twice with phosphate-buffered saline (PBS), 0.1% Tween 20, blocked for 1 hr at room temperature with TNE buffer containing 10% FBS and then incubated for 2 hr at 37° C. with the anti-NS4A mouse monoclonal antibody A-236 (ViroGen) diluted in the same buffer. After washing three times with PBS, 0.1% Tween 20, the cells were incubated 1 hr at 37° C. with anti-mouse immunoglobulin G-peroxidase conjugate in TNE, 10% FBS. After washing as described above, the reaction was developed with O-phenylenediamine (Zymed). The reaction was stopped after 30 min with 2 NH2SO4, and absorbance was read at 492 nm using Sunrise Tecan spectrophotometer. EC50 values were determined from the % inhibition versus concentration data using a sigmoidal non-linear regression analysis based on four parameters with Tecan Magellan software. When screening at a single concentration, the results were expressed as % inhibition at 15 μM.

[2] = Cytotoxicity evaluation (Cell Titer 96 AQueous One Solution Cell Proliferation Assay); type: cell-based; conditions: human; GS4.1 cells, cellular viability
Description: For cytotoxicity evaluation, GS4.1 cells were treated with compounds as described above and cellular viability was monitored using the Cell Titer 96 AQueous One Solution Cell Proliferation Assay (Promega). CC50 values were determined from the % cytotoxicity versus concentration data with Tecan Magellan software as described above.

HCV NS3-NS4A protease = target: T1, HCV NS3-NS4A protease (Hepatitis C virus genotype 1b, UniProt P26663); test: HCV Protease Assay (SensoLyte 620 HCV Protease Assay kit); type: biochemical; conditions: 1.2 nM HCV NS3-NS4A protease, 60 min at room temperature, 5% DMSO
T1 construct: made in house
Description: General procedure: Measurement of the inhibitory effect of compounds on HCV protease activity was performed with the SensoLyte™ 620 HCV Protease Assay kit from AnaSpec, Inc. (San Jose, Calif.) under conditions described by the supplier using 1.2 nM HCV NS3-NS4A protease, which was obtained according to Taremi et al. (Protein Science, 1998, 7, 2143-2149). The compounds were tested at a variety of concentrations in assay buffer containing a final DMSO concentration of 5%. Reactions were allowed to proceed for 60 min at room temperature and fluorescence measurements were recorded with a Tecan Infinity Spectrofluorimeter. The IC50 values were determined from the percent inhibition versus concentration data using a sigmoidal non-linear regression analysis based on four parameters with Tecan Magellan software.

T1 sequence (P26663 1027-1208): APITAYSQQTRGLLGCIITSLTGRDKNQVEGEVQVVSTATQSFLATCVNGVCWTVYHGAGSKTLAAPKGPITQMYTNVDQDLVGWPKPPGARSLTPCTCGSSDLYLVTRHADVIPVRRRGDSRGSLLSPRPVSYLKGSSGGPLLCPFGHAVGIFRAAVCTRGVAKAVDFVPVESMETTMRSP

Structure (SMILES) | EC50 [1] [nM] | CC50 [2] [nM] | IC50 (HCV NS3-NS4A protease) [nM]
COc1ccc2c(O[C@H]3C[C@H]4C(=O)N(C)CCCC/C=C\[C@@H]5C[C@@]5(C(=O)NS(=O)(=O)C5CC5)NC(=O)N4C3)cc(-n3ccc(C(C)C)n3)nc2c1C [Compound 91f, (Z)-(4R,6S,15S,17S)-[17-[8-methyl-7-methoxy-2-(3-isopropyl-1H-pyrazol-1-yl)quinolin-4-yloxy]-13-N-methyl-2,14-dioxo-1,3,13-triazatricyclo[13.3.0.0]octadec-7-ene-4-yl]carbonyl(cyclopropyl)sulfonamide] | < 1000 | > 75000 | < 1000
COc1cc(C)c2nc(-c3nc(C(C)C)cs3)cc(O[C@H]3C[C@H]4C(=O)N(C)CCCC/C=C\[C@@H]5C[C@@]5(C(=O)NS(=O)(=O)C5CC5)NC(=O)N4C3)c2c1 [Compound 62f, (Z)-(4R,6S,15S,17S)-[17-[6-methoxy-8-methyl-2-(4-isopropylthiazol-2-yl)quinolin-4-yloxy]-13-N-methyl-2,14-dioxo-1,3,13-triazatricyclo[13.3.0.0]octadec-7-en-4-yl]carbonyl(cyclopropyl)sulfonamide] | < 1000 | > 75000 | < 1000
COc1ccc2c(O[C@H]3C[C@H]4C(=O)N(C)CCCC/C=C\[C@@H]5C[C@@]5(C(=O)NS(=O)(=O)C5CC5)NC(=O)N4C3)cc(-c3csc(C(F)(F)F)n3)nc2c1Cl [Compound O1, (Z)-(4R,6S,15S,17S)-[17-[8-chloro-7-methoxy-2-(2-trifluoromethylthiazol-4-yl)quinolin-4-yloxy]-13-N-methyl-2,14-dioxo-1,3,13-triazatricyclo-[13.3.0.0]octadec-7-en-4-yl]carbonyl-(cyclopropyl)sulfonamide] | < 1000 | 10000 to 75000 | < 1000
COc1ccc2c(O[C@H]3C[C@H]4C(=O)N(C)CCCC/C=C\[C@@H]5C[C@@]5(C(=O)NS(=O)(=O)C5CC5)NC(=O)N4C3)cc(-c3nc(C(C)C)cs3)nc2c1C [Compound 62b, (Z)-(4R,6S,15S,17S)-[17-[7-methoxy-8-methyl-2-(4-isopropylthiazol-2-yl)quinolin-4-yloxy]-13-N-methyl-2,14-dioxo-1,3,13-triazatricyclo[13.3.0.0]octadec-7-en-4-yl]carbonyl(cyclopropyl)sulfonamide] | < 1000 | > 75000 | < 1000
C#Cc1csc(-c2cc(O[C@H]3C[C@H]4C(=O)N(C)CCCC/C=C\[C@@H]5C[C@@]5(C(=O)NS(=O)(=O)C5(C)CC5)NC(=O)N4C3)c3ccc(OC)c(C)c3n2)n1 [Compound G4, (Z)-(4R,6S,15S,17S)-[17-[7-methoxy-8-methyl-2-(4-ethynylthiazol-2-yl)quinolin-4-yloxy]-13-N-methyl-2,14-dioxo-1,3,13-triazatricyclo-[13.3.0.0]octadec-7-en-4-yl]carbonyl (1-methylcyclopropyl)sulfonamide] | < 1000 | 10000 to 75000 | < 1000
COc1ccc2c(O[C@H]3C[C@H]4C(=O)N(C)CCCC/C=C\[C@@H]5C[C@@]5(C(=O)NS(=O)(=O)C5CC5)NC(=O)N4C3)cc(-c3nc(C)cs3)nc2c1Cl [AN, (Z)-(4R,6S,15S,17S)-[17-[8-chloro-7-methoxy-2-(4-methylthiazol-4-yl)quinolin-4-yloxy]-13-N-methyl-2,14-dioxo-1,3,13-triazatricyclo-[13.3.0.0]octadec-7-en-4-yl]carbonyl-(cyclopropyl)sulfonamide] | < 1000 | 10000 to 75000 | < 1000
COc1cc2c(O[C@H]3C[C@H]4C(=O)N(C)CCCC/C=C\[C@@H]5C[C@@]5(C(=O)NS(=O)(=O)C5(C)CC5)NC(=O)N4C3)cc(-c3nc(C(C)C)cs3)nc2cc1Cl [Compound 56g, (Z)-(4R,6S,15S,17S)-[17-[7-chloro-6-methoxy-2-(4-isopropylthiazol-2-yl)quinolin-4-yloxy]-13-N-methyl-2,14-dioxo-1,3,13-triazatricyclo[13.3.0.0]octadec-7-en-4-yl]carbonyl(1-methyl-cyclopropyl)sulfonamide] | < 1000 | > 75000 | < 1000
